# Measured values reported in publication PMC9132415, “Identification of 1H-pyrazolo[3,4-b]pyridine derivatives as novel and potent TBK1 inhibitors: design, synthesis, biological evaluation, and molecular docking study” (Journal of Enzyme Inhibition and Medicinal Chemistry, 2022).
# Columns and labels:
# [1] = Cytotoxicity to normal cells; type: cell-based; settings: human, human umbilical vein endothelial cells (HUVECs)
# Description: Figure S1. The cytotoxicity of compound 15y on Human Umbilical Vein Endothelial Cells
# (HUVECs). Data are representative of 3 independent experiments and are shown in mean ± SD
# value. Nolin fit 4-parameters model were used to fit the curve and to calculate IC50 values by
# (1 picture or pasted object on this page, not shown here)
# [2] = target: T1, TBK1 (Homo sapiens, UniProt Q9UHD2); assay: FRET-based Z'-LYTE TBK1 enzymatic assay; type: biochemical; design: purchased Thermo Scientific A31513; settings: 100 µM ATP
# T1 sequence (Q9UHD2 1-729): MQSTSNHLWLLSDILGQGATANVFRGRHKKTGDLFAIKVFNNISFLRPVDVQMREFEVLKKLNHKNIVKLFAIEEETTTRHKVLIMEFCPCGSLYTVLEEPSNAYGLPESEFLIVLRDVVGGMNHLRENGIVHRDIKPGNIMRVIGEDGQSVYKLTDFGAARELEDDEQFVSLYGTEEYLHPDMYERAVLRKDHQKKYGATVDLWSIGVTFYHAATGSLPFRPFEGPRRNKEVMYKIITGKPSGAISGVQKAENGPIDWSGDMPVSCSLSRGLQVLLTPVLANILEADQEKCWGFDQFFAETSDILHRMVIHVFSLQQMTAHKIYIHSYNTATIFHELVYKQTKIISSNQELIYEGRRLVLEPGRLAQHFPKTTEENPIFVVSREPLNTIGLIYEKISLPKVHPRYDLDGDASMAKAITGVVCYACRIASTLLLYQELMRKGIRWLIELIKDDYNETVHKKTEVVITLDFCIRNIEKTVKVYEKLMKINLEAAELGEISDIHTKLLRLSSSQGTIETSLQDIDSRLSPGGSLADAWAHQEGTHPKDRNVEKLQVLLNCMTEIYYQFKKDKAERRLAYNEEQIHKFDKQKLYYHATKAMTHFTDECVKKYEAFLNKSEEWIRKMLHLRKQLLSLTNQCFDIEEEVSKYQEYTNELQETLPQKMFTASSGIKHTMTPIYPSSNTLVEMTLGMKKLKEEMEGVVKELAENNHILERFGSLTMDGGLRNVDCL
# [3] = target: PKG1α (Homo sapiens, UniProt Q13976); assay: Kinase selectivity profile (SelectScreen); type: biochemical; settings: remaining kinase activity at 1.0 μM
# Chain of PKG1α (Q13976 whole entry): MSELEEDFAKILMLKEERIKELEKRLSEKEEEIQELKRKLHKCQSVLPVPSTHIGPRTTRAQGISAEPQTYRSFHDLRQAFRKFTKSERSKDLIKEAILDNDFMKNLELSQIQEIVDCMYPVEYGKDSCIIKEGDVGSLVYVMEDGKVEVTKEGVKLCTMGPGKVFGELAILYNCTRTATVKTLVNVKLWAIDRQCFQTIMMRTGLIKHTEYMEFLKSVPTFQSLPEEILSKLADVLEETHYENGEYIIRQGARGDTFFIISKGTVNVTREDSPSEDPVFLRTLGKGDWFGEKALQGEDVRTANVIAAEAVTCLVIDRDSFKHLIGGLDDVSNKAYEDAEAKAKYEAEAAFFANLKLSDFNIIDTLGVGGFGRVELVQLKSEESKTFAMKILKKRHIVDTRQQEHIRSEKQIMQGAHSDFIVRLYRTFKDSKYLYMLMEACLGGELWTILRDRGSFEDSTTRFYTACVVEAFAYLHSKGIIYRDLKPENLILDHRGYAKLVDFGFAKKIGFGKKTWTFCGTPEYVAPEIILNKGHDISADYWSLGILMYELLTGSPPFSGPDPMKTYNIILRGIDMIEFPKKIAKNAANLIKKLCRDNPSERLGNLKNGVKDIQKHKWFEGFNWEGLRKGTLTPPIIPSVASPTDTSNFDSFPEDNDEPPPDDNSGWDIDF
# Description: (§1) Compound 15y was evaluated for their inhibitory activities against 31 kinases at a single concentration (1 µM). Two different assay platforms were available for profiling—activity and binding. The Z′-LYTE and Adapta kinase activity assays were used most extensively for profiling and a smaller subset of kinases might be profiled using the LanthaScreen Eu Kinase Binding Assays.
# [4] = target: ALK (Homo sapiens, UniProt Q9UM73); assay: Kinase selectivity profile (SelectScreen); type: biochemical; settings: remaining kinase activity at 1.0 μM
# Description: as §1
# [5] = target: EphB4 (Homo sapiens, UniProt P54760); assay: Kinase selectivity profile (SelectScreen); type: biochemical; settings: remaining kinase activity at 1.0 μM
# Description: as §1
# [6] = target: PI3K(p120g) (Homo sapiens, UniProt P48736); assay: Kinase selectivity profile (SelectScreen); type: biochemical; settings: remaining kinase activity at 1.0 μM
# Description: as §1
# [7] = target: PKCα (Homo sapiens, UniProt P17252); assay: Kinase selectivity profile (SelectScreen); type: biochemical; settings: remaining kinase activity at 1.0 μM
# Description: as §1
# [8] = target: EGFR (Homo sapiens, UniProt P00533); assay: Kinase selectivity profile (SelectScreen); type: biochemical; settings: remaining kinase activity at 1.0 μM
# Description: as §1
# [9] = target: mTOR (Homo sapiens, UniProt P42345); assay: Kinase selectivity profile (SelectScreen); type: biochemical; settings: remaining kinase activity at 1.0 μM
# Description: as §1
# [10] = target: MEK1 (Homo sapiens, UniProt Q02750); assay: Kinase selectivity profile (SelectScreen); type: biochemical; settings: remaining kinase activity at 1.0 μM
# Chain of MEK1 (Q02750 whole entry): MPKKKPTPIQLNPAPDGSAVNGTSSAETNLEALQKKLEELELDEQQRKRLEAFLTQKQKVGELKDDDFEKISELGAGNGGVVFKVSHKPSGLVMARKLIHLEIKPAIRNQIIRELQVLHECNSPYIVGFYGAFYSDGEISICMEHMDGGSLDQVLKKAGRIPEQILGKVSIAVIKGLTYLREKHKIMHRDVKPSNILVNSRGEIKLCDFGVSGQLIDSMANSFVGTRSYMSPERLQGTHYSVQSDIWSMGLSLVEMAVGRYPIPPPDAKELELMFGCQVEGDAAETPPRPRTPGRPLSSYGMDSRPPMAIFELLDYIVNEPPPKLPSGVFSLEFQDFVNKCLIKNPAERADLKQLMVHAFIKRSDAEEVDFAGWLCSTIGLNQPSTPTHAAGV
# Description: as §1
# [11] = target: PRAK (Homo sapiens, UniProt Q8IW41); assay: Kinase selectivity profile (SelectScreen); type: biochemical; settings: remaining kinase activity at 1.0 μM
# Description: as §1
# [12] = target: PLK3 (Homo sapiens, UniProt Q9H4B4); assay: Kinase selectivity profile (SelectScreen); type: biochemical; settings: remaining kinase activity at 1.0 μM
# Description: as §1
# [13] = target: PI3K(p110b/p85a) (Homo sapiens, UniProt P42338); assay: Kinase selectivity profile (SelectScreen); type: biochemical; settings: remaining kinase activity at 1.0 μM
# Description: as §1
# [14] = target: PKBα (Homo sapiens, UniProt P31749); assay: Kinase selectivity profile (SelectScreen); type: biochemical; settings: remaining kinase activity at 1.0 μM
# Description: as §1
# [15] = target: PI3K(p110a/p85a) (Homo sapiens, UniProt P42336); assay: Kinase selectivity profile (SelectScreen); type: biochemical; settings: remaining kinase activity at 1.0 μM
# Description: as §1
# [16] = target: PKCθ (Homo sapiens, UniProt Q04759); assay: Kinase selectivity profile (SelectScreen); type: biochemical; settings: remaining kinase activity at 1.0 μM
# Description: as §1
# [17] = target: Rse (Homo sapiens, UniProt Q06418); assay: Kinase selectivity profile (SelectScreen); type: biochemical; settings: remaining kinase activity at 1.0 μM
# Description: as §1
# [18] = target: eEF-2K (Homo sapiens, UniProt O00418); assay: Kinase selectivity profile (SelectScreen); type: biochemical; settings: remaining kinase activity at 1.0 μM
# Description: as §1
# [19] = target: MAPKAP-K2 (Homo sapiens, UniProt P49137); assay: Kinase selectivity profile (SelectScreen); type: biochemical; settings: remaining kinase activity at 1.0 μM
# Description: as §1
# [20] = target: CK1γ1 (Homo sapiens, UniProt Q9HCP0); assay: Kinase selectivity profile (SelectScreen); type: biochemical; settings: remaining kinase activity at 1.0 μM
# Chain of CK1γ1 (Q9HCP0 whole entry): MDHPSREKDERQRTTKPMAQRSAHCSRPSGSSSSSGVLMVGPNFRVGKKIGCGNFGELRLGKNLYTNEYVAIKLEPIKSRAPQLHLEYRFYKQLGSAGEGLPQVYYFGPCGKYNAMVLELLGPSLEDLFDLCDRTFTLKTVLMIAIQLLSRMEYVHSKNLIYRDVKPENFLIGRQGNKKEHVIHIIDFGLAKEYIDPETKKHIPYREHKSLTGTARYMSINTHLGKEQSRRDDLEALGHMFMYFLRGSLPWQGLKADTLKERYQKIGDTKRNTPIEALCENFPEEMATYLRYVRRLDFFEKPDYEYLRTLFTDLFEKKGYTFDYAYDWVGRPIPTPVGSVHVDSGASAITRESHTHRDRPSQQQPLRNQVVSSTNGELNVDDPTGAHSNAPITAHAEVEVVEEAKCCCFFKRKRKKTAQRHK
# Description: as §1
# [21] = target: PKA (Homo sapiens, UniProt P17612); assay: Kinase selectivity profile (SelectScreen); type: biochemical; settings: remaining kinase activity at 1.0 μM
# Description: as §1
# [22] = target: EphA5 (Homo sapiens, UniProt P54756); assay: Kinase selectivity profile (SelectScreen); type: biochemical; settings: remaining kinase activity at 1.0 μM
# Chain of EphA5 (P54756 25-1037): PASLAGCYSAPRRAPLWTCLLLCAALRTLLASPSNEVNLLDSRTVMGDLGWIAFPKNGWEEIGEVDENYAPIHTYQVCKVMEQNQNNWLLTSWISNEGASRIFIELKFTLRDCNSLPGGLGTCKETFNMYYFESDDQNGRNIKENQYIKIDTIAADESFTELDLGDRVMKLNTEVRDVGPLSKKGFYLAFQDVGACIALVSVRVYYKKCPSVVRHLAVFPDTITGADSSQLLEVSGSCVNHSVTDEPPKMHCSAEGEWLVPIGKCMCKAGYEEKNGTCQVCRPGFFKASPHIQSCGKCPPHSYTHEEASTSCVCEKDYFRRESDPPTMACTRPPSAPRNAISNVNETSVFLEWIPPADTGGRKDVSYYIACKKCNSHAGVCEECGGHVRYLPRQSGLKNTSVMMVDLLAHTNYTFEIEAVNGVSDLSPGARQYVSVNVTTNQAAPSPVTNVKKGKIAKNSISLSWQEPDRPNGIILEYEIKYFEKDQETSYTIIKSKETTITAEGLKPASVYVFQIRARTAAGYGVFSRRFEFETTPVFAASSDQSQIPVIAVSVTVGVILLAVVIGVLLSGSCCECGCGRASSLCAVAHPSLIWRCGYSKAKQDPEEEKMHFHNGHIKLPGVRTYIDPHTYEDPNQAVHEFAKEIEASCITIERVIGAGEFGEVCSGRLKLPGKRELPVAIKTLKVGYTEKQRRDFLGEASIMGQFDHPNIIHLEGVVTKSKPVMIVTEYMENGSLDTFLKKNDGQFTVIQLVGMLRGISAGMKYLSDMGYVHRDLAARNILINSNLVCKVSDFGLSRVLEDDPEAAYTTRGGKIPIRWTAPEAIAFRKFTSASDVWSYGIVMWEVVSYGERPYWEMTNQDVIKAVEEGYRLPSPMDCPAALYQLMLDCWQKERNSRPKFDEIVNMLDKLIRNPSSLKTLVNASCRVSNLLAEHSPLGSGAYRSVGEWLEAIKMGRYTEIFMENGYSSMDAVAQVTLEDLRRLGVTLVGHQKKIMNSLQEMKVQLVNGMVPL
# Description: as §1
# [23] = target: PDGFRβ (Homo sapiens, UniProt P09619); assay: Kinase selectivity profile (SelectScreen); type: biochemical; settings: remaining kinase activity at 1.0 μM
# Description: as §1
# [24] = target: ASK1 (Homo sapiens, UniProt Q99683); assay: Kinase selectivity profile (SelectScreen); type: biochemical; settings: remaining kinase activity at 1.0 μM
# Chain of ASK1 (Q99683 whole entry): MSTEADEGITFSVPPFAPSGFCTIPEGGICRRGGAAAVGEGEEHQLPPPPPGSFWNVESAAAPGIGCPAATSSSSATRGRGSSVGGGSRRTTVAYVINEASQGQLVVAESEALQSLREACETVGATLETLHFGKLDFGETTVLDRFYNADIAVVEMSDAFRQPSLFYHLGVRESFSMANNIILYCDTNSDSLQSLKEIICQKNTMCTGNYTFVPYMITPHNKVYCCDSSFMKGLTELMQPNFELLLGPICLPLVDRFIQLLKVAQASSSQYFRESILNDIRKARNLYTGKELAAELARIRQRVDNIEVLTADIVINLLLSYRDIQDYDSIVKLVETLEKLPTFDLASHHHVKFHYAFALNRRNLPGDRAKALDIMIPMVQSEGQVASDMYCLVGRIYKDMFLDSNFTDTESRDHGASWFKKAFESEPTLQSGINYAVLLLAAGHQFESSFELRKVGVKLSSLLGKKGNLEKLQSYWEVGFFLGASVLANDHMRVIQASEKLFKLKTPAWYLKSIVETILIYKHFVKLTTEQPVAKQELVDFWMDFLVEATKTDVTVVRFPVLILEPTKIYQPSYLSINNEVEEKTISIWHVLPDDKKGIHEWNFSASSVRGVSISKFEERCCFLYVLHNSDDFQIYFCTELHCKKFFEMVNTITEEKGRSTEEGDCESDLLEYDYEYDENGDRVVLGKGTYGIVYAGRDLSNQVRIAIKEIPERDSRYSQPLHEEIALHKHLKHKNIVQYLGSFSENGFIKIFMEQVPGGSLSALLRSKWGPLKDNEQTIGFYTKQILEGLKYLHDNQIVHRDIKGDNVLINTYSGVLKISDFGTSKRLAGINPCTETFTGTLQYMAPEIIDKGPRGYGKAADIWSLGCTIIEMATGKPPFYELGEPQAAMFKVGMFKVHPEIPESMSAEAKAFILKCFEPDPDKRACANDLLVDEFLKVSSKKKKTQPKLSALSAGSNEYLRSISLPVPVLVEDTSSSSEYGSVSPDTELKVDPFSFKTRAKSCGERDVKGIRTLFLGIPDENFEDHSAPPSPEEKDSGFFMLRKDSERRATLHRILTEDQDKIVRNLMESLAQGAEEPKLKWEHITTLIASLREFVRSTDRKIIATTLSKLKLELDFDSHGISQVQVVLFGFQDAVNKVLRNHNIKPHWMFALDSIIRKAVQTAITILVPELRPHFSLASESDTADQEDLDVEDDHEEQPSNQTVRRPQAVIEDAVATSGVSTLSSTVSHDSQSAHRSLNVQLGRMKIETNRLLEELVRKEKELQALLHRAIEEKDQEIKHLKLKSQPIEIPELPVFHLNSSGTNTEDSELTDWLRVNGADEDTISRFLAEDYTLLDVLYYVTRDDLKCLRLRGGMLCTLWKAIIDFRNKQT
# Description: as §1
# [25] = target: IGF-1R (Homo sapiens, UniProt P08069); assay: Kinase selectivity profile (SelectScreen); type: biochemical; settings: remaining kinase activity at 1.0 μM
# Description: as §1
# [26] = target: SRPK1 (Homo sapiens, UniProt Q96SB4); assay: Kinase selectivity profile (SelectScreen); type: biochemical; settings: remaining kinase activity at 1.0 μM
# Description: as §1
# [27] = target: SAPK2a (Homo sapiens, UniProt Q16539); assay: Kinase selectivity profile (SelectScreen); type: biochemical; settings: remaining kinase activity at 1.0 μM
# Chain of SAPK2a (Q16539 whole entry): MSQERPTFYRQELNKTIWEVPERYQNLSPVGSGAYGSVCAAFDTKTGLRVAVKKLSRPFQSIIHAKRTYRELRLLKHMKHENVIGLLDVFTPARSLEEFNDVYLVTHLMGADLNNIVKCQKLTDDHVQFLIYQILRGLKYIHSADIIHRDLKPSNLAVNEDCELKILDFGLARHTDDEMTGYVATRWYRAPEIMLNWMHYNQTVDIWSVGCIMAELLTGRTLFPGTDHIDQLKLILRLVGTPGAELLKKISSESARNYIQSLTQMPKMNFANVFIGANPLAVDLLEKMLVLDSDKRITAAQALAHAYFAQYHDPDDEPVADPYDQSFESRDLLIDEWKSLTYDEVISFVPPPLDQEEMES
# Description: as §1
# [28] = target: IKKβ (Homo sapiens, UniProt O14920); assay: Kinase selectivity profile (SelectScreen); type: biochemical; settings: remaining kinase activity at 1.0 μM
# Description: as §1
# [29] = tested on: ifnb and cxcl10 gene expression in THP-1 cells; assay: mRNA detection of TBK1 downstream genes (RT-PCR), poly(I:C)-stimulated THP-1 cells; type: cell-based, human; settings: compound at 1 µM
structure (smiles),measurement,setting,value
Cc1nc2c(F)cc(-c3n[nH]c4ncc(-c5cccc(S(N)(=O)=O)c5)cc34)cc2n1C(C)C [Compound 15y],IC50,[1],21.2 µM
same,inhibition at 0.0001 µM,"[2]; compound at 0.1 nM, read-out: TBK1 inhibition (%) 0.1 nM",33.6%
same,inhibition at 0.001 µM,"[2]; compound at 1 nM, read-out: TBK1 inhibition (%) 1 nM",88.8%
same,inhibition at 0.01 µM,"[2]; compound at 10 nM, read-out: TBK1 inhibition (%) 10 nM",93.8%
same,inhibition at 0.1 µM,"[2]; compound at 100 nM, read-out: TBK1 inhibition (%) 100 nM",102%
same,inhibition at 1 µM,"[2]; compound at 1 μM, read-out: TBK1 inhibition (%) 1 μM",53.9%
same,IC50,[2]; mean of two separate experiments,0.0002 µM
same,"%kinase activity @ 1.0 μM, PKG1α",[3],54%
same,"%kinase activity @ 1.0 μM, ALK",[4],28%
same,"%kinase activity @ 1.0 μM, EphB4",[5],77%
same,"%kinase activity @ 1.0 μM, PI3K(p120g)",[6],32%
same,"%kinase activity @ 1.0 μM, PKCα",[7],27%
same,"%kinase activity @ 1.0 μM, EGFR",[8],66%
same,"%kinase activity @ 1.0 μM, mTOR",[9],30%
same,"%kinase activity @ 1.0 μM, MEK1",[10],52%
same,"%kinase activity @ 1.0 μM, PRAK",[11],60%
same,"%kinase activity @ 1.0 μM, PLK3",[12],101%
same,"%kinase activity @ 1.0 μM, PI3K(p110b/p85a)",[13],95%
same,activity at 1 µM,[14],111%
same,"%kinase activity @ 1.0 μM, PI3K(p110a/p85a)",[15],69%
same,"%kinase activity @ 1.0 μM, PKCθ",[16],33%
same,"%kinase activity @ 1.0 μM, Rse",[17],49%
same,"%kinase activity @ 1.0 μM, eEF-2K",[18],108%
same,"%kinase activity @ 1.0 μM, MAPKAP-K2",[19],95%
same,"%kinase activity @ 1.0 μM, CK1γ1",[20],33%
same,"%kinase activity @ 1.0 μM, PKA",[21],84%
same,"%kinase activity @ 1.0 μM, EphA5",[22],51%
same,"%kinase activity @ 1.0 μM, PDGFRβ",[23],21%
same,"%kinase activity @ 1.0 μM, ASK1",[24],56%
same,"%kinase activity @ 1.0 μM, IGF-1R",[25],88%
same,"%kinase activity @ 1.0 μM, SRPK1",[26],58%
same,"%kinase activity @ 1.0 μM, SAPK2a",[27],60%
same,"%kinase activity @ 1.0 μM, IKKβ",[28],32%
same,inhibition of cxcl10 expression,[29],> 93%
same,inhibition of ifnb expression,[29],> 93%
